Experimental data taken from patent US6630127B2, “Method for assessing cortical response to blue light” (The McLean Hospital Corporation, priority 2000, dated 2003).

Columns and labels:
[1] = tested on: human primary visual cortex (V1); experiment: fMRI BOLD study with alternating red and blue photic stimulation after oral d-amphetamine or placebo
visual cortex = conditions: photic stimulation paradigm, humans; cited from earlier work

| Structure (SMILES) | Mean % BOLD signal change (all trials), V1, blue light stimulation ([1]; blue light 470 nm, 0.12 lux, 8 Hz, right and left V1 1x4 ROI, 2.5 mg d-amphetamine sulfate oral, N = 13) | mean BOLD signal change higher in drug than in placebo condition, blue light ([1]; blue light, drug 2.04% versus placebo 1.60%, all trials) | effect of time following drug administration on BOLD signal response to blue light ([1]; linear regression, 5 trials from about 18 min post-drug, Z=-2.471, P=0.013, decreasing BOLD signal over time) | effect of time following drug administration on BOLD signal response to red light ([1]; linear regression, 5 trials, Z=-0.470, P=0.638) | overall BOLD response to red and blue light ([1]; low dose (2.5 mg) d-amphetamine versus placebo) | Mean % BOLD signal change (all trials), V1, red light stimulation ([1]; red light 660 nm, 0.12 lux, 8 Hz, right and left V1 1x4 ROI, 2.5 mg d-amphetamine sulfate oral, N = 13) | mean BOLD signal change higher in drug than in placebo condition, red light ([1]; red light, drug 1.24% versus placebo 0.95%, all trials) | effect on BOLD signal / photic activation in visual cortex (visual cortex) |
| --- | --- | --- | --- | --- | --- | --- | --- | --- |
| C[C@H](N)Cc1ccccc1.C[C@H](N)Cc1ccccc1.O=S(=O)(O)O [d-amphetamine, d-amphetamine sulfate] | 2.04% | 28% | significant effect of time | no significant effect of drug over time | enhanced | 1.24% | 30% | – |
| CCO [ethanol] | – | – | – | – | – | – | – | inhibits photic activation |
